Assay results from ChEMBL document CHEMBL1201862, “PubChem BioAssay data set” (2004).
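In this assay, cells in 96-well plates receive the compound at five concentrations for 48 hours. Endpoints are linearly interpolated between the surrounding concentrations. GI50 = concentration required for 50% inhibition of growth.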 The source made the active and inactive calls. No stated cut-off is given here; in the data, active = GI50 up to about 1.1 µM and inactive = higher.

Key:
Assay in all cases: growth of human tumour cells (NCI), 48 h
[1] = test system: A498
[2] = test system: A549
[3] = test system: ACHN
[4] = test system: CCRF-CEM
[5] = test system: HCT-116
[6] = test system: HCT-15
[7] = test system: HL-60
[8] = test system: Hs-578T
[9] = test system: IGROV-1
[10] = test system: K562
[11] = test system: MDA-MB-435
[12] = test system: MOLT-4
[13] = test system: NCI-H460
[14] = test system: OVCAR-3
[15] = test system: OVCAR-4
[16] = test system: PC-3
[17] = test system: RXF 393
[18] = test system: SK-MEL-5
[19] = test system: SR
[20] = test system: UACC-62

SMILES | GI50 [1] | GI50 [2] | GI50 [3] | GI50 [4] | GI50 [5] | GI50 [6] | GI50 [7] | GI50 [8] | GI50 [9] | GI50 [10] | GI50 [11] | GI50 [12] | GI50 [13] | GI50 [14] | GI50 [15] | GI50 [16] | GI50 [17] | GI50 [18] | GI50 [19] | GI50 [20]
O=[N+]([O-])c1cc(Cc2cc([N+](=O)[O-])c3cccnc3c2O)c(O)c2ncccc12 | 14.2 µM (inactive) | 6.56 µM (inactive) | 5.6 µM (inactive) | 1.77 µM (inactive) | 3.35 µM (inactive) | 4.23 µM | 1.61 µM (inactive) | 9.51 µM (inactive) | 3.31 µM (inactive) | 4.16 µM (inactive) | 10.5 µM (inactive) | 2.12 µM (inactive) | 2.18 µM (inactive) | 2.38 µM (inactive) | 4.05 µM (inactive) | 4.41 µM (inactive) | 5.32 µM (inactive) | 6.79 µM (inactive) | 0.845 µM (active) | 9.48 µM (inactive)
CCCCCC/C=C1\CCC(CN(C)C)C1=O (stereo not given) | 17 µM (inactive) | 19.8 µM (inactive) | 9.64 µM (inactive) | 1.83 µM (inactive) | 3.56 µM (inactive) | 2.44 µM | 1.52 µM (inactive) | 7 µM (inactive) | 10.5 µM (inactive) | 2.4 µM (inactive) | 8.04 µM (inactive) | 3.05 µM (inactive) | 16.6 µM (inactive) | 6.61 µM (inactive) | 19.6 µM (inactive) | 11.5 µM (inactive) | 3.51 µM (inactive) | 14.3 µM (inactive) | 1.85 µM (inactive) | 5.64 µM (inactive)
CC1OC(OC2C(OC(=O)[C@]34CCC(C)(C)C[C@H]3C3=CC[C@@H]5[C@@]6(C)CC[C@H](OC7OC(C(=O)O)C(O)C(O)C7O)C(C)(C)[C@@H]6CC[C@@]5(C)[C@]3(C)C[C@H]4O)OCC(O)C2O)C(O)C(O)C1OC1OCC(OC2OCC(O)C(O)C2O)C(O)C1O (stereo not given in full) | 1.48 µM (inactive) | 3.9 µM (inactive) | 4.72 µM (inactive) | > 10 µM (inactive) | 4.66 µM (inactive) | 14.7 µM | 3.96 µM (inactive) | 19.1 µM (inactive) | 12.8 µM (inactive) | 11.4 µM (inactive) | 4.59 µM (inactive) | 14.8 µM (inactive) | 16.4 µM (inactive) | 15.9 µM (inactive) | 5.32 µM (inactive) | 6.46 µM (inactive) | 14.3 µM (inactive) | 13.9 µM (inactive) | 7.23 µM (inactive) | 11 µM (inactive)
COc1ccc2nc3ccc(OC)cc3c([S+]([O-])Cc3ccc([N+](=O)[O-])cc3)c2c1 (stereo not given) | 17.3 µM (inactive) | 25.8 µM (inactive) | 5.52 µM (inactive) | 2.11 µM (inactive) | 1.69 µM (inactive) | 3.19 µM | 1.75 µM (inactive) | 8.87 µM (inactive) | 5.3 µM (inactive) | 3.56 µM (inactive) | 8.07 µM (inactive) | 1.83 µM (inactive) | 23.3 µM (inactive) | 5.47 µM (inactive) | 9.51 µM (inactive) | 14.5 µM (inactive) | 5.04 µM (inactive) | 16.7 µM (inactive) | 8.18 µM (inactive) | 15.2 µM (inactive)
CC1CCCC(C(O)CC2CC(=O)NC(=O)C2)C1O (stereo not given) | > 100 µM (inactive) | > 100 µM (inactive) | > 100 µM (inactive) | > 100 µM (inactive) | > 100 µM (inactive) | > 100 µM | > 100 µM (inactive) | > 100 µM (inactive) | > 100 µM (inactive) | > 100 µM (inactive) | > 100 µM (inactive) | > 100 µM (inactive) | > 100 µM (inactive) | > 100 µM (inactive) | > 100 µM (inactive) | > 100 µM (inactive) | > 100 µM (inactive) | > 100 µM (inactive) | > 100 µM (inactive) | > 100 µM (inactive)
CC(C)(Cl)C(Br)CCC(C)(Cl)C(Br)CBr (stereo not given) | 22.5 µM (inactive) | 29.8 µM (inactive) | 21.2 µM (inactive) | 18.8 µM (inactive) | 18.8 µM (inactive) | 24.6 µM | 19.4 µM (inactive) | 35.7 µM (inactive) | 23.3 µM (inactive) | 22.5 µM (inactive) | 26.7 µM (inactive) | 41.2 µM (inactive) | 20 µM (inactive) | 25.1 µM (inactive) | 28.3 µM (inactive) | 27.2 µM (inactive) | 32.7 µM (inactive) | 18.2 µM (inactive) | 2.58 µM (inactive) | 38.2 µM (inactive)
CN(C)c1ccc2cc3ccc(N(C)C)cc3nc2c1 [ACRIDINE ORANGE] | 4.08 µM (inactive) | 0.927 µM (active) | 0.611 µM (active) | 0.678 µM (active) | 0.316 µM (active) | 0.467 µM | 0.331 µM (active) | 2.5 µM (inactive) | 2.2 µM (inactive) | 0.397 µM (active) | 1.79 µM (inactive) | 0.134 µM (active) | 0.393 µM (active) | 2.95 µM (inactive) | 0.853 µM (active) | 2.04 µM (inactive) | 3.74 µM (inactive) | 1.99 µM (inactive) | 0.0849 µM (active) | 4.05 µM (inactive)
